Results published in patent US11225503B2, “Crystobactamides” (HELMHOLTZ-ZENTRUM FÜR INFEKTIONSFORSCHUNG GMBH, priority 2013, dated 2022).

System: Cystobacter velatus MCy8071
Experiment: Antibiotic resistance of the producer strain
Type: cell-based
Settings: final concentration of all antibiotics 50 μg ml^−1
Description: MCy8071 is resistant against the following antibiotics: ampicillin, gentamycin, hygromycin, polymycin, bacitracin, spectinomycin, neomycin, and fusidinic acid. Weak growth is possible with cephalosporin and kasugamycin and no growth is possible with thiostrepton, trimethoprin, kanamycin, and oxytetracycline (final concentration of all antibiotics was adjusted to 50 μg ml^−1).

Molecule | growth of strain MCy8071 in presence of the antibiotic
C[C@H]1O[C@H](O[C@H]2[C@H](O)[C@@H](O)[C@@H](O)[C@H](O)[C@@H]2O)[C@@H](N)C[C@@H]1NC(=N)C(=O)O [kasugamycin] | Weak growth
CN[C@@H]1[C@H](O)[C@H](NC)[C@H]2O[C@@]3(O)C(=O)C[C@@H](C)O[C@H]3O[C@@H]2[C@H]1O [spectinomycin] | resistant
C=C(NC(=O)C(=C)NC(=O)c1csc(C2=N[C@@H]3c4csc(n4)[C@H]4NC(=O)c5csc(n5)[C@H]([C@](C)(O)[C@@H](C)O)NC(=O)[C@H]5CSC(=N5)/C(=C/C)NC(=O)[C@H]([C@@H](C)O)NC(=O)c5csc(n5)[C@]3(CC2)NC(=O)[C@H](C)NC(=O)C(=C)NC(=O)[C@H](C)NC(=O)[C@H]([C@@H](C)CC)N[C@@H]2C=Cc3c([C@H](C)O)cc(nc3[C@H]2O)C(=O)O[C@@H]4C)n1)C(N)=O [thiostrepton] | no growth
COc1cc(Cc2cnc(N)nc2N)cc(OC)c1OC [trimethoprin] | no growth
gentamycin | resistant
neomycin | resistant
polymycin | resistant
